Assay results published in USRE38825E1, “Glyphosate tolerant plants” (Monsanto Technology LLC, priority 1990, dated 2005).

Molecular target: LBAA glyphosate oxidoreductase variant w1w2v3 (SER84, LYS153, ARG334) (Ochrobactrum sp. G-1, UniProt D2KI28, H334R/S2A)
Experiment: Kinetic analysis of domain switches, clone w1w2v3
Type: biochemical, bacterial isolate LBAA (Pseudomonas strain LBAA)
Details: substrate glyphosate
Protocol: The mutagenesis procedure used was that of Mn++-poisoned PCR and the template was a linearized glyphosate oxidoreductase gene plasmid containing the synthetic glyphosate oxidoreductase gene (SEQ ID NO:8). The oligonucleotide primers used were homologous to regions in the vector and flanking the glyphosate oxidoreductase gene. The PCR conditions employed were as follows: 1 minute at 94° C., 2 minutes at 55° C., and 3 minutes at 72° C. and with 35 cycles. A 5:1 ratio of dCTP+dGTP+TTP to dATP was used. The reactions contained MnCl2 at 125, 250, 375, or 500 μM. After the reaction, the amplified product was recloned into a vector containing a weak E. coli promoter. This vector was a pBR327 derivative containing the araBAD promoter and suitable cloning sites. […] Growth rates were determined by measuring A550 over a 96 hour period. […] Protein concentrations were determined using the Bio-Rad protein dye-binding assay. […] Ten minutes was determined to be the optimal time for the enzyme assay using 10 μg lysate. […] Enzyme activity was determined from the amount of glyoxylate-DNPH adduct formed by measuring A520 against a standard of glyoxylate. […] The Km and Vmax were determined from Lineweaver Burk, Eadie-Hofstee and hyperbolic kinetic plots. […]

**Q.** For `O=C(O)CNCP(=O)(O)O` [glyphosate, N-phosphonomethyl-glycine], which VmKm is on record?
**A.** Its VmKm is 0.375.
